We go through 9 compounds from PubChem BioAssay AID342 (DTP/NCI, 2004).

By T/C is commonly meant the result in the treated group divided by that in the control group, in per cent.

Several values for one entry are separate records, joined by “and”; a condition that tells them apart may be missing. Equal entries are not always repeated.

In the assay the test system is Swiss mice, Sarcoma 180 sc, mean tumor weight T/C. Description: NCI In Vivo Anticancer Drug Screen. Data for tumor model Sarcoma 180 (subcutaneous) in Swiss mice. The conditions noted are these: endpoint: mean tumor weight, higher = larger tumour. An outline of the steps: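 T/C ratio: treated over vehicle-treated controls, measuring survival or tumor size in transplanted-tumor mice.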

The mark [1] stands for this setting: dose: 4.0 mg/kg/injection, schedule: Q01DX007 (ip), vehicle: carboxymethylcellulose (CMC).
Setting [2] is: dose: 2.0 mg/kg/injection, schedule: Q01DX007 (ip), vehicle: carboxymethylcellulose (CMC).

As for `CC/C(=C(/CC)c1ccc(O)cc1)c1ccc(O)cc1`, the T/C reads like this: (dose: 19.69 mg/kg/injection, schedule: Q01DX007 (sc), vehicle: steriod suspending solution) 54 % of control; (dose: 22.13 mg/kg/injection, schedule: Q01DX007 (sc), vehicle: steriod suspending solution) 51 % of control; (dose: 24.0 mg/kg/injection, schedule: Q01DX007 (sc), vehicle: steriod suspending solution) 51 % of control; (dose: 39.38 mg/kg/injection, schedule: Q01DX007 (sc), vehicle: steriod suspending solution) 42 % of control; (dose: 44.25 mg/kg/injection, schedule: Q01DX007 (sc), vehicle: steriod suspending solution) 60 % of control; (dose: 48.0 mg/kg/injection, schedule: Q01DX007 (sc), vehicle: steriod suspending solution) 37 % of control. The T/C (dose: 70.8 mg/kg/injection, schedule: Q01DX007 (sc), vehicle: steriod suspending solution) was 80 % of control; the T/C (dose: 78.75 mg/kg/injection, schedule: Q01DX007 (sc), vehicle: steriod suspending solution) is 65 % of control; the T/C (dose: 96.0 mg/kg/injection, schedule: Q01DX007 (sc), vehicle: steriod suspending solution) is 30 % of control; the T/C (dose: 118.0 mg/kg/injection, schedule: Q01DX007 (sc), vehicle: steriod suspending solution) is 72 % of control; the T/C (dose: 157.5 mg/kg/injection, schedule: Q01DX007 (sc), vehicle: steriod suspending solution) was 52 % of control; the T/C (dose: 177.0 mg/kg/injection, schedule: Q01DX007 (sc), vehicle: steriod suspending solution) is 57 % of control.

For `N#Cc1ccc(S(N)(=O)=O)cc1`, the T/C (dose: 30.0 mg/kg/injection, schedule: Q01DX007 (ip), vehicle: alkali diluted with saline) was 76 % of control; the T/C (dose: 33.0 mg/kg/injection, schedule: Q01DX007 (ip), vehicle: other) is 70 % of control; the T/C (dose: 44.0 mg/kg/injection, schedule: Q01DX007 (ip), vehicle: alkali diluted with saline) is 71 % of control; the T/C (dose: 49.0 mg/kg/injection, schedule: Q01DX007 (ip), vehicle: other) was 68 % of control; the T/C (dose: 66.0 mg/kg/injection, schedule: Q01DX007 (ip), vehicle: alkali diluted with saline) is 54 % of control; the T/C (dose: 74.0 mg/kg/injection, schedule: Q01DX007 (ip), vehicle: other) is 59 % of control. In addition, the T/C is, setting by setting: (dose: 100.0 mg/kg/injection, schedule: Q01DX007 (ip), vehicle: alkali diluted with saline) 39 % of control; (dose: 111.0 mg/kg/injection, schedule: Q01DX007 (ip), vehicle: other) 45 % of control and 60 % of control; (dose: 166.0 mg/kg/injection, schedule: Q01DX007 (ip), vehicle: other) 34 % of control; (dose: 250.0 mg/kg/injection, schedule: Q01DX007 (ip), vehicle: other) 13 % of control.

Take `O=c1[nH]c(=S)c2[nH]c(=O)[nH]c2[nH]1`: the T/C (dose: 50.0 mg/kg/injection, schedule: Q#A X014 (ip), vehicle: methylcellulose (MC)) was 94 % of control; the T/C (dose: 100.0 mg/kg/injection, schedule: Q#A X014 (ip), vehicle: methylcellulose (MC)) is 73 % of control; the T/C (dose: 200.0 mg/kg/injection, schedule: Q#A X014 (ip), vehicle: methylcellulose (MC)) is 101 % of control.

Turning to `COC(=O)C1=CO[C@H](C)[C@@H]2CN3CCc4c([nH]c5ccccc45)[C@@H]3C[C@H]12`, the T/C is 110 % of control (dose: 12.5 mg/kg/injection, schedule: Q01DX007 (ip), vehicle: carboxymethylcellulose (CMC)); 83 % of control (dose: 25.0 mg/kg/injection, schedule: Q01DX007 (ip), vehicle: carboxymethylcellulose (CMC)); 84 % of control (dose: 50.0 mg/kg/injection, schedule: Q01DX007 (ip), vehicle: carboxymethylcellulose (CMC)); 98 % of control (dose: 100.0 mg/kg/injection, schedule: Q01DX007 (ip), vehicle: carboxymethylcellulose (CMC)).

Turning to `CCCCNc1ncnc2c1cnn2C`, the T/C by setting is: under setting [1], 124 % of control; (dose: 8.0 mg/kg/injection, schedule: Q01DX007 (ip), vehicle: carboxymethylcellulose (CMC)) 107 % of control and 121 % of control; (dose: 31.0 mg/kg/injection, schedule: Q01DX007 (ip), vehicle: carboxymethylcellulose (CMC)) 92 % of control; (dose: 32.0 mg/kg/injection, schedule: Q01DX007 (ip), vehicle: carboxymethylcellulose (CMC)) 77 % of control; (dose: 62.0 mg/kg/injection, schedule: Q01DX007 (ip), vehicle: carboxymethylcellulose (CMC)) 112 % of control.

As for `NNc1nnc(NN)c2ccccc12`, the T/C (dose: 31.25 mg/kg/injection, schedule: Q01DX007 (ip), vehicle: saline) was 167 % of control; the T/C (dose: 62.5 mg/kg/injection, schedule: Q01DX007 (ip), vehicle: saline) was 176 % of control; the T/C (dose: 125.0 mg/kg/injection, schedule: Q01DX007 (ip), vehicle: saline) is 119 % of control.

With `Nc1nc(=S)c2[nH]cnc2[nH]1`, the T/C was 72 % of control (dose: 0.06 mg/kg/injection, schedule: Q#A X014 (ip), vehicle: carboxymethylcellulose (CMC)); 78 % of control (dose: 0.12 mg/kg/injection, schedule: Q01DX007 (ip), vehicle: carboxymethylcellulose (CMC)); 82 % of control (dose: 0.25 mg/kg/injection, schedule: Q01DX007 (ip), vehicle: carboxymethylcellulose (CMC)); 89 % of control (dose: 0.25 mg/kg/injection, schedule: Q#A X014 (ip), vehicle: carboxymethylcellulose (CMC)); 97 % of control (dose: 0.5 mg/kg/injection, schedule: Q01DX007 (ip), vehicle: carboxymethylcellulose (CMC)); 49 % of control (dose: 0.6 mg/kg/injection, schedule: Q01DX007 (ip), vehicle: carboxymethylcellulose (CMC)). For the same compound, the T/C is, setting by setting: (dose: 0.75 mg/kg/injection, schedule: Q01DX007 (ip), vehicle: carboxymethylcellulose (CMC)) 78 % of control; (dose: 1.0 mg/kg/injection, schedule: Q01DX007 (ip), vehicle: carboxymethylcellulose (CMC)) 22 % of control and 37 % of control; (dose: 1.0 mg/kg/injection, schedule: Q#A X014 (ip), vehicle: carboxymethylcellulose (CMC)) 46 % of control; (dose: 1.5 mg/kg/injection, schedule: Q01DX007 (ip), vehicle: carboxymethylcellulose (CMC)) 33 % of control; under setting [2], 37 % of control and 50 % of control; (dose: 3.0 mg/kg/injection, schedule: Q01DX007 (ip), vehicle: carboxymethylcellulose (CMC)) 25 % of control. Moreover, the T/C by setting is: (dose: 4.0 mg/kg/injection, schedule: Q#A X014 (ip), vehicle: carboxymethylcellulose (CMC)) 23 % of control; (dose: 6.7 mg/kg/injection, schedule: Q01DX007 (ip), vehicle: carboxymethylcellulose (CMC)) 10 % of control and 15 % of control; (dose: 10.0 mg/kg/injection, schedule: Q01DX007 (ip), vehicle: carboxymethylcellulose (CMC)) 3 % of control; (dose: 187.5 mg/kg/injection, schedule: Q#A X014 (ip), vehicle: carboxymethylcellulose (CMC)) 58 % of control; (dose: 375.0 mg/kg/injection, schedule: Q#A X014 (ip), vehicle: carboxymethylcellulose (CMC)) 51 % of control; (dose: 750.0 mg/kg/injection, schedule: Q#A X014 (ip), vehicle: carboxymethylcellulose (CMC)) 35 % of control. Further, the T/C (dose: 1500.0 mg/kg/injection, schedule: Q#A X014 (ip), vehicle: carboxymethylcellulose (CMC)) was 16 % of control.

As for `CC1(C)O[C@@H]2C[C@H]3[C@@H]4CCC5=CC(=O)CC[C@]5(C)[C@@]4(F)[C@@H](O)C[C@]3(C)[C@]2(C(=O)CO)O1`, the T/C was 53 % of control and 63 % of control (dose: 2.2 mg/kg/injection, schedule: Q#A X014 (sc), vehicle: steriod suspending solution); 61 % of control (dose: 2.3 mg/kg/injection, schedule: Q01DX007 (sc), vehicle: steriod suspending solution); 62 % of control (dose: 3.3 mg/kg/injection, schedule: Q#A X014 (sc), vehicle: steriod suspending solution); 47 % of control (dose: 3.5 mg/kg/injection, schedule: Q01DX007 (sc), vehicle: steriod suspending solution); 27 % of control (dose: 5.0 mg/kg/injection, schedule: Q#A X014 (sc), vehicle: steriod suspending solution); 43 % of control (dose: 5.3 mg/kg/injection, schedule: Q01DX007 (sc), vehicle: steriod suspending solution). The T/C (dose: 7.5 mg/kg/injection, schedule: Q#A X014 (sc), vehicle: steriod suspending solution) was 24 % of control; the T/C (dose: 12.0 mg/kg/injection, schedule: Q01DX007 (sc), vehicle: steriod suspending solution) was 36 % of control; the T/C (dose: 27.0 mg/kg/injection, schedule: Q01DX007 (sc), vehicle: steriod suspending solution) is 39 % of control and 40 % of control; the T/C (dose: 40.0 mg/kg/injection, schedule: Q01DX007 (sc), vehicle: steriod suspending solution) was 32 % of control; the T/C (dose: 60.0 mg/kg/injection, schedule: Q01DX007 (sc), vehicle: steriod suspending solution) is 24 % of control; the T/C (dose: 90.0 mg/kg/injection, schedule: Q01DX007 (sc), vehicle: steriod suspending solution) is 19 % of control and 30 % of control. Further, where the note is “dose: 130.0 mg/kg/injection, schedule: Q01DX007 (sc), vehicle: steriod suspending solution”, the T/C was 16 % of control.

In the case of `O=C(O)CCc1c[nH]c2ccc(N(CCCl)CCCl)cc12`, the T/C reads like this: under setting [2], 47 % of control; under setting [1], 32 % of control.
